Test results published in US8536354B2, “Steroidal ligands and their use in gene switch modulation” (Intrexon Corporation, priority 2008, dated 2013).
Where two headings read alike, the source gives them in different places.

Key:
[1] = biological target: T1, wild-type Aedes aegypti EcR (AaEcR-DEF) (Aedes aegypti, UniProt P49880); assay: Two-hybrid gene switch assay, AaEcR-DEF in NIH3T3 cells; settings: AaEcR; for rel max FI (20E), AA: max fold induction at any concentration relative to 20E; for rel max FI (PoA), AA: max fold induction at any concentration relative to PoA; for EC50: NIH3T3 cells, luciferase, 48 h, ligand 0.01-33 μM
T1 sequence (P49880 405-776 limits assumed): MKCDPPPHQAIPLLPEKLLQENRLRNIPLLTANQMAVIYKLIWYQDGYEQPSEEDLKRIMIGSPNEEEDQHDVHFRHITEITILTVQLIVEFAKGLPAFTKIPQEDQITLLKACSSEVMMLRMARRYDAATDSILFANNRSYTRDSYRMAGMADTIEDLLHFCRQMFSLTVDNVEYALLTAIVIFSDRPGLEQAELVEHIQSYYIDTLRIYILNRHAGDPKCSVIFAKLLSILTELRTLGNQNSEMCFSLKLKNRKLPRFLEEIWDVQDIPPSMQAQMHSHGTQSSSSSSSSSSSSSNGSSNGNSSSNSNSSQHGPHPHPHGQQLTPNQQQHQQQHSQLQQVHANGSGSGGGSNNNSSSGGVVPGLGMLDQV

[2] = biological target: T2, wild-type Drosophila melanogaster EcR (DmEcR-DEF) (Drosophila melanogaster, UniProt P34021); assay: Two-hybrid gene switch assay, DmEcR-DEF in NIH3T3 cells; settings: for rel max FI (20E), DM: max fold induction at any concentration relative to 20E; for rel max FI (PoA), DM: max fold induction at any concentration relative to PoA
T2 sequence (P34021 342-878 limits assumed): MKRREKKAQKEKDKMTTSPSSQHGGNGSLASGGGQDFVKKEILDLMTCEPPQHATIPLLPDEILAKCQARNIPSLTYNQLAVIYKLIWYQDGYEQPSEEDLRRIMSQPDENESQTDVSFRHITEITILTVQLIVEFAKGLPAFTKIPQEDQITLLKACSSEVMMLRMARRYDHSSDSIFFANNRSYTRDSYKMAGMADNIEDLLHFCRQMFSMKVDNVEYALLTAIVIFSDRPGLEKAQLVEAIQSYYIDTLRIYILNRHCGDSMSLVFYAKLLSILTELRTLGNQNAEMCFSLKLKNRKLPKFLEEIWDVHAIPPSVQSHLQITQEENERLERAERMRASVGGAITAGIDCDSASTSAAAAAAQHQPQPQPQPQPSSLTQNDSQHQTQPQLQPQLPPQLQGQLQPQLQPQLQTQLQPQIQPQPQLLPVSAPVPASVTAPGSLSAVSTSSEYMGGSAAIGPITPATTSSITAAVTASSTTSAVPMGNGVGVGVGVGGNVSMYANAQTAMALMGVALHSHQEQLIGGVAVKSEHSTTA

[3] = biological target: Bemisia argentifolii EcR (BaEcR-DEF) (Bemisia argentifolii (Bemisia tabaci biotype B / MEAM1), UniProt A0A6M3RDR8); assay: Two-hybrid gene switch assay, BaEcR-DEF in NIH3T3 cells; settings: for Emax: NIH3T3, 48 h
Bemisia argentifolii EcR (BaEcR-DEF), sequence (P28702 298-449): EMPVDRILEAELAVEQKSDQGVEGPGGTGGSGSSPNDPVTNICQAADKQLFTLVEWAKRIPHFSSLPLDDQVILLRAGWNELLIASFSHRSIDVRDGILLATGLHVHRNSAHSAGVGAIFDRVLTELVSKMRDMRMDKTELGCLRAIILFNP
Bemisia argentifolii EcR (BaEcR-DEF), sequence (A0A6M3RDR8 entry or part of it): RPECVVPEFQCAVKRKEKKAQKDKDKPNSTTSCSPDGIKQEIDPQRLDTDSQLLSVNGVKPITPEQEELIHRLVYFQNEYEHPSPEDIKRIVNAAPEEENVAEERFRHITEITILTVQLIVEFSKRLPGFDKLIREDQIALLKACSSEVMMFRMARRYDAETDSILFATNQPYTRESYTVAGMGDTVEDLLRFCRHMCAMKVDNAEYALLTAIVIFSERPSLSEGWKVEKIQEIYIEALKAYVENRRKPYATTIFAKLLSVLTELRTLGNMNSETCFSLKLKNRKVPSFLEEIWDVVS

[4] = test system: Nephotettix cincticeps EcR (NcEcR-DEF); assay: Two-hybrid gene switch assay, NcEcR-DEF in NIH3T3 cells; settings: for rel max FI (20E), NC: max fold induction at any concentration relative to 20E; for rel max FI (PoA), NC: max fold induction at any concentration relative to PoA; for EC50: read-out: EC50 (μM), NC, NIH3T3 cells, luciferase, 48 h, ligand 0.01-33 μM
[5] = biological target: T3, Tenebrio molitor EcR (TmEcR-DEF) (Tenebrio molitor, UniProt O02035); assay: Two-hybrid gene switch assay, TmEcR-DEF in NIH3T3 cells; settings: for Emax: NIH3T3, 48 h
T3 sequence (O02035 194-491): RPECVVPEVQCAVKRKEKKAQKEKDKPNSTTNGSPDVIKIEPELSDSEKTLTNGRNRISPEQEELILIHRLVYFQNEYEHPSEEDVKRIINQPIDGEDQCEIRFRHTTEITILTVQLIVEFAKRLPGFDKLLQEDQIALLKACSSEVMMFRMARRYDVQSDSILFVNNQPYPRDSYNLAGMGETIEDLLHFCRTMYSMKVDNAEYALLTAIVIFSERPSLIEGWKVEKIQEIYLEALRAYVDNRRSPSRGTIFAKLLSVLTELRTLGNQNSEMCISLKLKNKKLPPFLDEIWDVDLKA
T3 sequence (P28704 285-520 partner): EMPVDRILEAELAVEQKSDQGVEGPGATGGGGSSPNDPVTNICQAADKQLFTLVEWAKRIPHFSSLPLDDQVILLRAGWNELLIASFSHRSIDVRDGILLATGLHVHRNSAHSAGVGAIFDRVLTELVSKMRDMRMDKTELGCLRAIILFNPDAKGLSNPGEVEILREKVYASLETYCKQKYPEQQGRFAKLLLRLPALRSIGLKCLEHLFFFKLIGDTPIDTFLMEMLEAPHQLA

[6] = biological target: T4, Manduca sexta EcR (MsEcR) (Manduca sexta, UniProt P49883); assay: Two-hybrid gene switch assay, MsEcR-CDEF in NIH3T3 cells; settings: for rel max FI (20E), MS: max fold induction at any concentration relative to 20E; for rel max FI (PoA), MS: max fold induction at any concentration relative to PoA
T4 sequence (P49883 293-531 limits assumed): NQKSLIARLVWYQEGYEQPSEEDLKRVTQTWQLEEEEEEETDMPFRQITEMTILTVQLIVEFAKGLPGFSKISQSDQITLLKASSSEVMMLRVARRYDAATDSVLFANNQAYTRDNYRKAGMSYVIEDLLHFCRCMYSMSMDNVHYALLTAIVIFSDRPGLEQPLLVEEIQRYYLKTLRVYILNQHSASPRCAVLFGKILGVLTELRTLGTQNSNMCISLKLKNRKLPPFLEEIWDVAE

[7] = test system: EcRs (lepidopteran and non-lepidopteran); assay: Two-hybrid gene switch assays, statements across the set of ten EcRs in NIH3T3 cells

Row | SMILES | rel max FI (20E), AA [1] | rel max FI (PoA), AA [1] | rel max FI (20E), DM ([2]; DmEcR) | rel max FI (PoA), DM ([2]; DmEcR) | rel max FI (20E), NC [4] | rel max FI (PoA), NC [4] | EC50 [4] | rel max FI (20E), MS ([6]; MsEcR) | rel max FI (PoA), MS ([6]; MsEcR) | EC50 ([1]; EC50 (μM), AA) | EC50 [3] | Emax ([3]; read-out: rel max FI (20E), BA) | Emax ([3]; read-out: rel max FI (PoA), BA) | EC50 [5] | Emax ([5]; read-out: rel max FI (20E), TM) | Emax ([5]; read-out: rel max FI (PoA), TM) | EC50 [6] | EC50 [2] | other results
1 | COC1C[C@H]2C(=O)C=C3[C@H](CC[C@]4(C)[C@@H]([C@@](C)(O)C(CCC(C)(C)O)OC)CC[C@@]34OC)[C@@]2(C)CC1OC (stereo partly drawn) [20E-2,3,14,22-tetramethyl ether] | 0.07 | 0.02 | 0.01 | 0.02 | 0.01 | 0.01 | > 33 µM | 0.00 | 0.00 |  |  |  |  |  |  |  |  |  | EC50 ([1]; read-out: EC50 (μM), AA): > 33 µM; EC50 ([2]; read-out: EC50 (μM), DM, DmEcR, NIH3T3 cells, luciferase, 48 h, ligand 0.01-33 μM): > 33 µM; rel max FI (20E), BA ([3]; BaEcR, max fold induction at any concentration relative to 20E): 0.02; rel max FI (PoA), BA ([3]; BaEcR, max fold induction at any concentration relative to PoA): 0.01; EC50 ([3]; read-out: EC50 (μM), BA, BaEcR, NIH3T3 cells, luciferase, 48 h, ligand 0.01-33 μM): > 33 µM; rel max FI (20E), TM ([5]; TmEcR, max fold induction at any concentration relative to 20E): 0.05; rel max FI (PoA), TM ([5]; TmEcR, max fold induction at any concentration relative to PoA): 0.02; EC50 ([5]; read-out: EC50 (μM), TM, TmEcR, NIH3T3 cells, luciferase, 48 h, ligand 0.01-33 μM): > 33 µM; EC50 ([6]; read-out: EC50 (μM), MS, MsEcR, NIH3T3 cells, luciferase, 48 h, ligand 0.01-33 μM): > 33 µM
2 | CO[C@H]1C[C@@]2(C)[C@@H](C[C@H]1O)C(=O)C=C1[C@@H]2CC[C@]2(C)[C@@H]([C@@](C)(O)[C@@H](CCC(C)(C)O)OC)CC[C@@]12O [20E-2,22-dimethyl ether] | 2.34 | 0.80 | 0.12 | 0.15 | 0.84 | 0.86 | ~10 µM | 0.15 | 0.09 | ~8 µM | ~10 µM | 24% | 19% | ~10 µM | 24% | 13% | ~20 µM |  | EC50 ([2]; EC50 (μM), DM, DmEcR, NIH3T3 cells, luciferase, 48 h, ligand 0.01-33 μM): ~20 µM
3 | CO[C@H]1C[C@@]2(C)[C@@H](C[C@H]1O)C(=O)C=C1[C@@H]2CC[C@]2(C)[C@@H]([C@@](C)(O)[C@H](O)CCC(C)(C)O)CC[C@@]12O [20E-2-methyl ether] | 0.87 | 0.30 | 0.00 | 0.00 | 0.82 | 0.84 | ~8 µM | 0.16 | 0.10 | ~10 µM | > 33 µM | 3% | 3% | > 33 µM | 7% | 4% | ~20 µM | > 33 µM | 
4 | CO[C@@H]1C[C@H]2C(=O)C=C3[C@H](CC[C@]4(C)[C@@H]([C@@](C)(O)[C@@H](CCC(C)(C)O)OC)CC[C@@]34O)[C@@]2(C)C[C@@H]1O [20E-3,22-dimethyl ether] | 2.32 | 0.79 | 0.07 | 0.09 | 1.03 | 1.06 | ~8 µM | 0.82 | 0.52 | 7.15 µM | ~10 µM | 38% | 30% | ~6 µM | 137% | 71% | ~10 µM | ~20 µM | 
5 | CO[C@@H]1C[C@H]2C(=O)C=C3[C@H](CC[C@]4(C)[C@@H]([C@@](C)(O)[C@H](O)CCC(C)(C)O)CC[C@@]34O)[C@@]2(C)C[C@@H]1O [20E-3-methyl ether] | 1.75 | 0.60 | 0.02 | 0.03 | 1.01 | 1.04 | 1.69 µM | 1.15 | 0.73 | ~10 µM | ~15 µM | 29% | 23% | ~10 µM | 114% | 59% | ~10 µM | > 33 µM | 
6 | CO[C@H](CCC(C)(C)O)[C@](C)(O)C1CC[C@@]2(O)C3=CC(=O)C4C[C@@H](O)[C@@H](O)CC4(C)C3CCC12C (stereo partly drawn) [20E-22-methyl ether] | 2.52 | 0.86 | 0.87 | 1.07 | 1.02 | 1.05 | 2.59 µM | 1.29 | 0.81 | 1.04 µM | ~3 µM | 154% | 123% | 7.08 µM | 158% | 81% | ~10 µM | ~4 µM | 
7 | CC(C)CC[C@@H](O)[C@](C)(O)[C@H]1CC[C@@]2(O)C3=CC(=O)[C@@H]4C[C@@H](O)[C@@H](O)C[C@]4(C)[C@H]3[C@H](O)C[C@]12C [ajugasterone C] |  |  |  |  |  |  |  |  |  |  |  |  |  |  |  |  |  |  | selectivity / relative potency between EcRs [7]: higher in non-lepidopteran species
8 | C[C@@H]1C(=O)O[C@H](C)[C@H]1C[C@@H](O)[C@](C)(O)[C@H]1CC[C@@]2(O)C3=CC(=O)[C@@H]4C[C@@H](O)[C@@H](O)C[C@]4(C)[C@H]3CC[C@]12C [cyasterone] |  |  |  |  |  |  |  |  |  |  |  |  |  |  |  |  |  |  | selectivity / relative potency between EcRs [7]: somewhat selective for lepidopteran EcRs
9 | CC(C)=CC[C@@H](O)[C@](C)(O)[C@H]1CC[C@@]2(O)C3=CC(=O)[C@@H]4C[C@@H](O)[C@@H](O)C[C@]4(C)[C@H]3CC[C@]12C [stachysterone C] |  |  |  |  |  |  |  |  |  |  |  |  |  |  |  |  |  |  | activity across the tested set of EcRs ([7]; FIGS. 13 and 14): active
